Test results: publication PMC8147254, “Efflux at the Blood-Brain Barrier Reduces the Cerebral Exposure to Ochratoxin A, Ochratoxin α, Citrinin and Dihydrocitrinone” (Toxins, 2021)
Read-outs that look alike come from different tables or passages of the source.

Tests used:
PBCEC [1] = assay type: cell-based, porcine; settings: 1 µM apical, 48 h, referred to t = 0 h, n = 9 (negative control 88 ± 4%)
Description: In order to study the barrier integrity PBCEC were incubated with 1 µM OTA, OTα, CIT and DHCIT in the apical compartment (blood side) of Transwell® filter inserts for 48 h. The TEER values as well as the electrical capacitance (cCL) were monitored by cellular impedance spectroscopy (Figure 4A,B). As a negative control the permeability of […] was measured after 48 h. Sucrose is not transported by any cellular transport protein and represents a marker for an intact BBB.
For barrier integrity, TEER values were monitored using a cellZscope® cellular impedance spectrometer (nanoAnalytics, Münster, Germany). […]. The detailed protocols can be found in the Supplementary Materials. […]
6.1. Cellular impedance spectroscopy
To monitor the barrier integrity during all transfer studies, the transendothelial electrical resistance (TEER) was measured with a cellZscope® cellular impedance spectrometer (nanoAnalytics, Münster, Germany) using a module suitable for 24 Transwell® filter inserts. After the mycotoxins were added to the cell culture medium, TEER was analyzed until the end of the experiment (48 h). The waiting time after each run was set to 10 min, resulting in 60 scans per 48 h.
The results were normalized to the TEER values of the first impedance spectrum of each well. Data processing was performed using the cellZscope 1.3.4 software (nanoAnalytics, Münster, Germany).

PBCEC [2] = settings: for cytotoxic or barrier-weakening (adverse) effects / effect on cellular viability: up to 10 µM
PBCEC monolayer = assay type: in vitro ADME, porcine; settings: 200 nM in both compartments; for effect of probenecid on the enrichment in the apical compartment: 100 µM probenecid; for concentration in the apical compartment after 48 h / concentration in the basolateral compartment after 48 h: n = 3; for mycotoxin amounts extracted from the cells and filter membranes, of the initially applied amount: data not shown
Description: To analyse any active transport the mycotoxins were applied in the apical and basolateral compartments in equimolar concentrations of 200 nM. In a second set of experiments, 100 µM probenecid were added to both compartments 1 h before mycotoxin incubation in order to elucidate the effects of the OAT transport proteins. […] The mycotoxin concentrations were analysed as described above by HPLC-MS/MS.
For active transport studies, the cells were treated as described for transfer studies, with the only difference being that the compounds were applied on the apical and basolateral side in equimolar 200 nM concentrations (see Supplementary Materials). To investigate whether probenecid has an effect on the active transfer of the mycotoxins via OAT, 100 µM probenecid was applied to the apical and basolateral compartment 1 h before mycotoxin application and maintained until the end of the experiment.
Afterwards, the column was re-equilibrated for 4 min. An injection volume of 5 µL was used.
5. Active transport studies
To study the active transfer properties, the cells were treated in the same manner as for the normal transfer studies, but the mycotoxins were incubated on the apical and basolateral side in equimolar 200 nM concentrations as previously described. To investigate whether probenecid has an effect on the active transfer of the mycotoxins via OAT, 100 μM probenecid was applied to the apical and basolateral compartment 1 h before mycotoxin application and maintained until the end […]
after applying the mycotoxins using HPLC‐MS/MS. […]

[3] = 50 German volunteers, dried blood spot; cited from earlier work
[4] = 13 German volunteers; cited from earlier work
[5] = 289 µg OTA/kg body weight/48 h for up to 6 weeks; cited from earlier work
[6] = 100 µM probenecid from 1 h before

| Structure (SMILES) | relative TEER value after 48 h (PBCEC [1]) | cytotoxic or barrier-weakening (adverse) effects (PBCEC [2]) | effect on cellular viability (PBCEC [2]; 48 h) | effect of probenecid on the enrichment in the apical compartment (PBCEC monolayer) | concentration in the apical compartment after 48 h (PBCEC monolayer; [6]) | concentration in the basolateral compartment after 48 h (PBCEC monolayer; [6]) | concentration in the apical compartment after 48 h (PBCEC monolayer; without probenecid) | concentration in the basolateral compartment after 48 h (PBCEC monolayer; without probenecid) | mycotoxin amounts extracted from the cells and filter membranes, of the initially applied amount (PBCEC monolayer) | mean whole blood concentration of OTA [3] | mean OTA concentration in blood plasma [4] | concentration in brain tissue [5] | dehydrogenase activity compared to the negative control (PBCEC [2]; 10 nM, 48 h, CCK-8, n = 18) | mean total OTα level in blood plasma [4] |
| --- | --- | --- | --- | --- | --- | --- | --- | --- | --- | --- | --- | --- | --- | --- |
| CC1=C2C(=CO[C@H](C)[C@H]2C)C(O)=C(C(=O)O)C1=O [CIT, Citrinin] | 81 ± 10% | no adverse effects | neither altered the cellular viability | some effect of probenecid cannot be dismissed | 205 ± 21 nM | 180 ± 12 nM | 266 ± 18 nM | 182 ± 1 nM | below 1% | – | – | – | – | – |
| Cc1c(O)c(C(=O)O)c(O)c2c1[C@H](C)[C@@H](C)OC2=O [DHCIT, dihydrocitrinone] | 79 ± 9% | no adverse effects | neither altered the cellular viability | – | 250 ± 15 nM | 178 ± 15 nM | 278 ± 7 nM | 186 ± 6 nM | below 1% | – | – | – | – | – |
| C[C@@H]1Cc2c(Cl)cc(C(=O)N[C@@H](Cc3ccccc3)C(=O)O)c(O)c2C(=O)O1 [OTA, Ochratoxin A] | 62 ± 10% | – | – | minor almost negligible effect | 292 ± 28 nM | 224 ± 6 nM | 275 ± 32 nM | 206 ± 4 nM | below 1% | 0.21 ± 0.066 ng/mL | 0.25 ± 0.03 ng/mL | up to 94 ± 16 ng/g | 112 ± 12% | – |
| C[C@@H]1Cc2c(Cl)cc(C(=O)O)c(O)c2C(=O)O1 [OTα, ochratoxin α] | 92 ± 16% | no adverse effects | neither altered the cellular viability | weak | 236 ± 16 nM | 187 ± 1 nM | 268 ± 10 nM | 194 ± 5 nM | below 1% | – | – | – | – | 2.99 ± 2.24 ng/mL |
